Activity calls are given as the source filed them.
What was measured:
[1] = biological target: Acyl-homoserine lactone acylase PvdQ (Pseudomonas aeruginosa (strain LESB58), UniProt Q9I194); experiment: PvdQ acylase enzyme activity blockers – biochemical, fluorescence, plate reader and imaging, cherry-picks, dose response (AID 493231)
[2] = biological target: T1, Zinc finger protein mex-5 (Caenorhabditis elegans, UniProt Q9XUB2); experiment: potency of MEX-5 RNA-binding blockers – biochemical, C. elegans, fluorescence polarization, dose response (AID 1960)
T1 sequence (Q9XUB2 whole entry): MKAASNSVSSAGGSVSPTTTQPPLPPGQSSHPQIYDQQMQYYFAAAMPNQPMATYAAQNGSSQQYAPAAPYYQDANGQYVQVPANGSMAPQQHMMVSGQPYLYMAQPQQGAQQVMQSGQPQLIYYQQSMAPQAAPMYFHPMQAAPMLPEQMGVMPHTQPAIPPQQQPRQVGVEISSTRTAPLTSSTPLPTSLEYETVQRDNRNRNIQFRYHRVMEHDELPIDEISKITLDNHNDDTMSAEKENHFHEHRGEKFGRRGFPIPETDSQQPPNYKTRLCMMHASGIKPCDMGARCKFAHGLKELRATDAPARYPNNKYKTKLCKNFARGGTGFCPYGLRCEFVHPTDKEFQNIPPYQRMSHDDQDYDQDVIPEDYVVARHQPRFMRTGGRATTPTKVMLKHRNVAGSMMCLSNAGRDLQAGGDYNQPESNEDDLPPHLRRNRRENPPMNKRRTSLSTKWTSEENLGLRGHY

[3] = biological target: T2, RNA-binding protein pos-1 (Caenorhabditis elegans, UniProt G5EF15); experiment: disruptors of C. elegans POS-1 RNA interaction – biochemical, fluorescence polarization, dose response (AID 1964);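 note: purified POS-1 fused to maltose binding protein made in E. coli; potency of compounds blocking POS-1 binding to fluorescent RNA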
T2 sequence (G5EF15 whole entry): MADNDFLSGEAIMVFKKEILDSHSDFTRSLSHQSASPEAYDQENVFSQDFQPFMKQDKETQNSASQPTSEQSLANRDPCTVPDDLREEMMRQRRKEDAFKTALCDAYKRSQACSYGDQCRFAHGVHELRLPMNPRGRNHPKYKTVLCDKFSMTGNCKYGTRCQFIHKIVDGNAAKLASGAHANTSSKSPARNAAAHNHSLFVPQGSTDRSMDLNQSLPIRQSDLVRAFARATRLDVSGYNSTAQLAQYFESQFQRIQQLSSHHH

[4] = biological target: Protein Rev (Human immunodeficiency virus type 1 group M subtype B (isolate HXB2)(HIV-1), UniProt P04618); experiment: blockers of HIV Rev/RRE RNA complex – biochemical, fluorescence polarization, HIV-1, dose response (AID 434976); design: species or system Human immunodeficiency virus 1
[5] = biological target: Female germline-specific tumor suppressor gld-1 (Caenorhabditis elegans, UniProt Q17339); experiment: blockers of GLD-1/TGE RNA complex formation – biochemical, fluorescence polarization, C. elegans, dose response (AID 2802);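 note: fluorescence polarization of labeled TGE RNA bound by purified gld-1 protein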
[6] = biological target: T3, C-C chemokine receptor type 6 (Homo sapiens, UniProt P51684); experiment: antagonism of CCR6 beta-arrestin recruitment – cell-based, luminescent beta-arrestin readout, dose response (AID 504728); assay type: functional
T3 sequence (P51684 whole entry): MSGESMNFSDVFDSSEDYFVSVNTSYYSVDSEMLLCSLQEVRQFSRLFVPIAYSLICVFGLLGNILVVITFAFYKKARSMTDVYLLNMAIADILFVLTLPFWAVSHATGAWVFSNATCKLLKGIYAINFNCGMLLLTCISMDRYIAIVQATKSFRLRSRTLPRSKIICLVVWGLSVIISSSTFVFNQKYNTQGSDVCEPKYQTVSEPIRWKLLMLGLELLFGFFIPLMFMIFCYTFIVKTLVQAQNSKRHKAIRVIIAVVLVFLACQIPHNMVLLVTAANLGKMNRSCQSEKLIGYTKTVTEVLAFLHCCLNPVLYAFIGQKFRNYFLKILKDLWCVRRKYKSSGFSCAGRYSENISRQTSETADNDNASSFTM

[7] = biological target: Beta-galactosidase (Escherichia coli, UniProt Q8VNN2); experiment: detection-enzyme interference by beta-gal modulators – biochemical, E. coli enzyme, set 3, artefact control for CCR6 antagonist project, dose response (AID 504712); assay type: functional
[8] = Luminescence Cell-Based Dose Response HTS to Identify Inhibitors of 5'UTR Stem-Loop Driven Prion Protein mRNA Translation in H4 Neuroglioblastoma Cells. [Related pubchem assays: 1827 (Project Summary), 1813 (Primary HTS)]; assay type: functional
[9] = luciferase reporter signal suppression in cells – H4 neuroglioma cells, luminescence, dose response (AID 1990); assay type: functional, cell-based
[10] = alpha-synuclein stem-loop luciferase translation blockers – H4 neuroglioma cells, luminescence, confirmation (AID 1988); assay type: functional, cell-based
[11] = biological target: T4, Voltage-gated N-type calcium channel alpha-1B subunit/Amyloid beta A4 precursor protein-binding family A member 1 (Homo sapiens, UniProt Q00975+Q02410); experiment: disruptors of Mint-PDZ/N-type channel peptide interaction – biochemical, HTRF, SAR follow-up (AID 2489); assay type: functional
[12] = biological target: T4, Voltage-gated N-type calcium channel alpha-1B subunit/Amyloid beta A4 precursor protein-binding family A member 1; assay type: protein assay
[13] = biological target: T4, Voltage-gated N-type calcium channel alpha-1B subunit/Amyloid beta A4 precursor protein-binding family A member 1; assay type: protein assay; remark: listed apart in the source
[14] = test system: Vero; experiment: host cell viability loss, Vero E6 – synthesized analogs, cytotoxicity control for West Nile virus antiviral project, SAR follow-up (AID 2244); assay type: functional; settings: Chlorocebus sabaeus
[15] = test system: Vero; experiment: Vero cell viability after compound exposure – synthesized analogs, set II, cytotoxicity control for West Nile virus antiviral project, SAR follow-up (AID 2402); assay type: functional; settings: Chlorocebus sabaeus
[16] = A Cell Based Assay for the Identification of Probe candidate Compounds with Anti- Venezuelan Equine Encephalitis virus. [Related pubchem assays: 2409, 2419, 1621, 2238, 2405, 2024, 2065, 2402, 2414, 1635, 1650, 2244 ]; assay type: functional

In the case of Cc1cc(NC(=O)c2cc(Cl)ccc2Cl)no1, the AC50 [1] is reported as > 100 µM (inactive).
For CCN1C/C(=C/c2cccs2)c2nc3ccccc3c(C(=O)O)c2C1, the EC50 [2] was 31.9 µM (active), the EC50 [3] was 39.2 µM (active) and the IC50 [4] was 17 µM (not active). For the same compound, the IC50 [5] was 9.41 µM (active).
With CN1CCN(c2ccccc2NC(=O)c2ccc(-c3cccc(Cl)c3)o2)CC1 the IC50 [6] was > 66.6 µM (inactive) and the IC50 [7] was > 66.6 µM (inactive).
For COc1ccc(N2C(=O)/C(=C\NNc3nc(C)cc(C)n3)c3ccccc3C2=O)cc1OC, the EC50 [8] was 11.8 µM (active), the EC50 [9] was 11.8 µM (active) and the IC50 [6] was 0.594 µM (active). The IC50 [7] was > 66.6 µM (inactive) and the EC50 [10] was 9.51 µM (active).
With CCCCc1ccc(/C=C2\C(=O)c3ccccc3C(O)=C2C(=O)OCC)cc1 the IC50 [11] was 16.2 µM (active), the IC50 [12] was 17.8 µM (active) and the IC50 [13] was 5.63 µM (active).
In the case of CCCCN(C(=O)c1ccccc1Cl)c1nc(-c2ccc(OC)cc2)cs1, the CC50 [14] is reported as > 40 µM (active), the CC50 [15] is reported as > 100 µM (active) and the IC50 [16] is reported as > 66.6 µM (active).
In the case of COc1ccc(NC(=O)c2ccc(-c3ccc(C(C)=O)cc3)o2)cn1, the IC50 [4] is reported as 16.4 µM (not active) and the IC50 [5] is reported as 9.1 µM (active).
In the case of CCCCCC1CC(COc2ccccc2)OC1=O (stereo unspecified), the AC50 [1] is reported as 6.27 µM (active).
